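Five concentrations, 48 hours, 96-well plates. Abbreviation: GI50, concentration required for 50% inhibition of growth. TGI denotes the concentration required for complete inhibition of growth.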
Tests used:
Test in all cases: DTP human tumour cell line panel, 48 h
HOP-92 NSCLC = system: HOP-92 NSCLC
SNB-19 CNS = system: SNB-19 CNS
OVCAR-4 ovarian = system: OVCAR-4 ovarian
HL-60(TB) leukemia = system: HL-60(TB) leukemia
UACC-257 melanoma = system: UACC-257 melanoma
PC-3 prostate = system: PC-3 prostate
TK-10 renal = system: TK-10 renal
SN12C renal = system: SN12C renal
OVCAR-5 ovarian = system: OVCAR-5 ovarian
CAKI-1 renal = system: CAKI-1 renal

Row | Structure (SMILES) | GI50 (HOP-92 NSCLC) [µM] | TGI (HOP-92 NSCLC) [µM] | GI50 (SNB-19 CNS) [µM] | TGI (SNB-19 CNS) [µM] | GI50 (OVCAR-4 ovarian) [µM] | TGI (OVCAR-4 ovarian) [µM] | GI50 (HL-60(TB) leukemia) [µM] | GI50 (UACC-257 melanoma) [µM] | TGI (UACC-257 melanoma) [µM] | GI50 (PC-3 prostate) [µM] | TGI (PC-3 prostate) [µM] | GI50 (TK-10 renal) [µM] | TGI (TK-10 renal) [µM] | GI50 (SN12C renal) [µM] | TGI (SN12C renal) [µM] | GI50 (OVCAR-5 ovarian) [µM] | TGI (OVCAR-5 ovarian) [µM] | GI50 (CAKI-1 renal) [µM] | TGI (CAKI-1 renal) [µM] | TGI (HL-60(TB) leukemia) [µM]
1 | CCOC(=O)c1ccccc1OC(=O)NNc1ccccc1 | 6.92 | > 100 | > 51.6 | > 100 | 15.2 | > 100 | 0.365 | 5.61 | > 100 | 7.91 | > 100 | 7.05 | > 100 | 34.9 | > 100 | 5.34 | > 100 | 0.377 | > 100 | 
2 | NS(=O)(=O)OCC1OC(n2cnc3cncnc32)C(O)C1O (centres undefined) | 0.0183 | 0.0619 | 0.0126 | 0.0685 | 0.0103 | 0.0745 | 0.0556 | 0.0431 | 0.244 | 0.0312 | 0.237 | 0.0214 | 0.0713 | < 0.01 | 0.0369 | < 0.0114 | 0.0747 | 0.0181 | 0.0463 | 
3 | CC12OOC(c3ccccc31)c1c2ccc2ccccc12 (centres undefined) |  | 9.94 |  | 30.5 |  | 2.43 |  |  | 26.8 |  | 18.8 |  | 22.3 |  | 29.6 |  | 33.6 |  | 4.64 | 2.72
4 | COC1C(CO)OC(n2c3ccccc3c3c4c(c5c6ccccc6[nH]c5c32)C(=O)NC4=O)C(O)C1O (centres undefined) | 0.0792 | 1.22 | 0.0277 | 6.64 | 0.342 | 17.7 | 0.0114 | 0.103 |  | 0.206 | 7.06 | 0.143 | 0.548 | < 0.0187 | 0.111 | 0.27 | 2.24 | < 0.0184 | 0.0937 | 0.034
5 | COc1cc2nccc(Oc3ccc(NC(=O)NC4CC4)c(Cl)c3)c2cc1C(N)=O | 7.06 | 38.3 | 17.7 | 62.1 | 12.2 | > 100 | > 100 | 27 | > 93.7 | 42.5 | > 100 | 14.5 | > 78.5 | 7.44 | > 100 | 47.4 | > 100 | 23.9 | > 64.2 | > 100
6 | CCOC(=O)[C@@H](C)C[C@H](Cc1ccccc1)NC(=O)c1nc([C@@H](C[C@H](C(C)C)N(C)C(=O)[C@@H](NC(=O)[C@H]2CCCCN2C)C(C)C)OC(C)=O)sc1CCOCc1ccccc1 | 0.109 | 2.34 | 0.0926 | 4.34 | 0.222 | > 11.1 | 0.0394 | 1.51 | 4.19 | 0.0521 | 2.41 | 0.631 | 5.28 | 0.0706 | 1.55 | 0.246 | 4.11 | 0.128 | 2.18 | 0.19
7 | CCOC(=O)c1ccc(Nc2sc(C(=O)c3ccc(Br)cc3)c(N)c2C#N)cc1 | 0.884 | > 100 | 7.18 | > 100 |  | > 100 | 0.421 | 6.19 | > 100 | 0.797 | > 100 |  |  | 4.12 | > 100 | 5.66 | > 100 | 1.73 | > 100 | > 25.2
8 | O=C(c1ccco1)c1nc2cc(C(F)(F)F)ccc2nc1C(F)(F)F | 27.2 | > 100 | > 100 | > 100 | 56.4 | > 100 | 22.2 | > 100 | > 100 | > 100 | > 100 | > 100 | > 100 | > 100 | > 100 | > 100 | > 100 | > 100 | > 100 | 69.2
9 | CCCCCCCC/C=C/CCCCCCCC1=NC(C)(C)CN1CC(C)O (centres undefined) | 1.21 | 5.58 | 5.54 | 17.7 | 3.08 | 11.1 | 1.88 | 1.85 | 3.54 | 2.26 | 8.08 | 2.73 | 7.49 | 3.3 | 12.3 | 3.6 | 10.4 | 1.53 | 3 | 4.44
10 | COc1ccc(C(=O)Nc2ncc(Cc3cccc(Cl)c3)s2)cc1OC | 1.99 | > 100 | 0.689 | > 100 | 3.68 | > 100 | 0.325 | 0.566 | > 100 | 1.5 | > 100 | 7.85 | > 100 | 1.33 | > 100 | 1.25 | > 100 | 0.309 | > 100 | > 71
11 | Cc1ccc(Cl)cc1Nc1nc(C(F)(F)F)ccc1C(=O)N/N=C/c1cccnc1 | 1.55 | 7.37 | 3.37 | 14.4 | 1.33 | 15.4 | 1.5 | 3.15 | 10.1 | 1.99 | 18.7 | 1.32 | 8.89 | 4.75 | 21.9 | 3.44 | 17.1 | 2.14 | 9.02 | > 46
12 | Nc1c(C(=O)c2ccc(-c3cccnc3)cc2)cnn1-c1ccc(F)cc1 | > 25 | > 25 | > 25 | > 25 | 8.41 | > 24 | > 13.8 | > 22.4 | > 25 | > 25 | > 25 | > 19.3 | > 25 | > 19.5 | > 25 | > 25 | > 25 | > 25 | > 25 | > 25
13 | CCOC(=O)c1ccc2c(c1)Cc1cc([N+](=O)[O-])ccc1-2 |  | > 100 |  | > 100 |  | 56 |  |  | > 100 |  | > 100 |  | 86.5 |  | > 100 |  | > 100 |  | > 100 | > 100
